Experimental data: patent publication US8518869B2, “Pharmaceutical combined preparation containing a therapeutic protein” (Austria Wirtschaftsservice Gesellschaft m.b.H., priority 2004, dated 2013)

Columns and labels:
[1] = Source text: It is understood that often arrangements must be made also for the storage of the preparation according to the invention so that said preparation will remain stable over an extended period of time. […] Hereby, it is possible to store the low-molecular thiol compound and the nitrosated protein of the preparation according to the invention both in combined and in separate form.
[2] = tested on: collagen-induced platelet aggregation; experiment: collagen-induced platelet aggregation in human plasma rich in thrombocytes (aggregometer, method by Born); assay type: cell-based; conditions: 300 μmol/L, ~1 μg collagen/mL TRP
Experimental: The platelet aggregation was performed with human plasma rich in thrombocytes (TRP) in a Dual Kanal Chronolog Aggregometer basically according to the method by Born (1969). At the onset of each experiment, the exact dose of collagen was determined for the aggregation induced by collagen (˜1 μg collagen/mL TRP) (95-100% inhibition of the collagen-induced aggregation by 300 μmol/L of acetylsalicylic acid). […] After another minute, aggregation was induced with collagen. Control experiments with collagen alone were carried out after every second to third measurement. […] In experiments with different thiol- and non-thiol-containing substances (N-acetyl-L-cysteine, ascorbic acid, DL-homocysteine, taurine, L-cysteine), pre-incubation was effected primarily with those substances, in analogy to the trials using reduced glutathione.

Molecule	pH-value at which stability in solution is greatest [1]	inhibition at 300 µM [2] [%]
N[C@@H](CS)C(=O)O [L-cysteine]	< 7	–
CC(=O)Oc1ccccc1C(=O)O [acetylsalicylic acid]	–	95 to 100
haemoglobin	6 and 7	–
